# Reference: patent publication US20240254140A1, “COMPOUNDS AND THEIR USE IN THE TREATMENT OF BACTERIAL INFECTION” (Hoffmann-La Roche Inc., priority 2021, published 2024)
# Test system: Escherichia coli ATCC 25922
# Test: Minimal Inhibitory Concentration (MIC) determination, broth microdilution
# Assay type: cell-based
# Conditions: ATCC25922; strain Escherichia coli ATCC 25922; broth microdilution per CLSI M07-A10; 18-24 hours at 35±2° C.; lowest concentration for complete growth inhibition
# Experimental: Minimal Inhibitory Concentration (MIC) Determination:
# The MIC of antibacterial compounds against multiple species and strains was determined using the broth microdilution method according to M07-A10 Clinical and Laboratory Standards Institute (CLSI) guidelines, using the appropriate broth medium. In short, the compound plates were prepared by dispensing 100 μL of each stock solution in the first well of a 96 well microtiter plate (MTP) at a concentration 100-fold higher than the final concentration desired in broth. Eleven serial 2-fold dilutions of the highest concentration were made in DMSO for new compounds and in water (or appropriate solution) for reference compounds [2]. 1 μL of each well was transferred in a new MTP, which served as the test plate by subsequent inoculation. This bacterial suspension was prepared from strains that were first sub-cultured on agar plates and incubated for 18-24 hours as appropriate. Following incubation, the inoculum was prepared from isolated colonies and adjusted to 0.5 McFarland turbidity standard (1 to 2×10^8 Colony Forming Units (CFU)/mL) in 0.9% saline. The bacterial suspension was then diluted 1:200 in appropriate sterile medium and within 15 minutes 100 μL/well were dispensed. Negative controls (lack of bacterial cells) and growth control wells (lack of compound) were included in all plates. MTPs were incubated for 18-24 hours at 35±2° C. in ambient air. The MIC value of each compound, expressed as μg/mL, was determined as the lowest concentration required for complete growth inhibition (no visible growth). • [1] CLSI (2015) Methods for dilution antimicrobial susceptibility tests for bacteria that grow aerobically; Approved Standard, Tenth Edition. CLSI Document M7-A10 (ISBN 1-56238-987-4). Wayne, PA: Clinical and Laboratory Standards Institute, 19087, USA. • [2] CLSI (2017) Performance Standards for Antimicrobial Susceptibility Testing; Twenty-Fifth Informational Supplement. CLSI Document M100-S27, CLSI, Wayne, Pennsylvania 19087, USA.
# Table 1 provides the Minimal Inhibitory Concentrations (MIC) in micrograms per millilitre of the compounds of present invention obtained against the strain Escherichia coli ATCC 25922.
row,MIC [µg/mL],SMILES
1,1,"Cc1cc(NC(=O)[C@@H]2CCCN2C)nc2c1CC(CNCCC1CN(c3cnc4c(n3)NC(=O)CO4)C(=O)O1)C2 (stereo partly drawn) [Example 27, (2S)-1-methyl-N-[4-methyl-6-[[2-[2-oxo-3-(3-oxo-4H-pyrazino[2,3-b][1,4]oxazin-6-yl)oxazolidin-5-yl]ethylamino]methyl]-6,7-dihydro-5H-cyclopenta[b]pyridin-2-yl]pyrrolidine-2-carboxamide]"
2,0.125,"CN(C)CC(=O)Nc1cc(F)c2c(c1)CC(CNCCC1CN(c3cnc4c(n3)NC(=O)CO4)C(=O)O1)C2 (stereo not shown) [Example 1, 2-(Dimethylamino)-N-[7-fluoro-2-[[2-[2-oxo-3-(3-oxo-4H-pyrazino[2,3-b][1,4]oxazin-6-yl)oxazolidin-5-yl]ethylamino]methyl]indan-5-yl]acetamide]"
3,0.5,"CC(C)(O)C(=O)Nc1cc(C#N)c2c(c1)CC(CNCCC1CN(c3ccc4c(n3)NC(=O)CO4)C(=O)O1)C2 (stereo not shown) [Example 21, N-[7-cyano-2-[[2-[2-oxo-3-(3-oxo-4H-pyrido[3,2-b][1,4]oxazin-6-yl)oxazolidin-5-yl]ethylamino]methyl]indan-5-yl]-2-hydroxy-2-methyl-propanamide]"
4,0.5,"N[C@H](CO)C(=O)Nc1cc(F)c2c(c1)CC(CNCCC1CN(c3cnc4c(n3)NC(=O)CO4)C(=O)O1)C2 (stereo partly drawn) [Example 38, (2R)-2-amino-N-[7-fluoro-2-[[2-[2-oxo-3-(3-oxo-4H-pyrazino[2,3-b][1,4]oxazin-6-yl)oxazolidin-5-yl]ethylamino]methyl]indan-5-yl]-3-hydroxy-propanamide]"
5,1,CN(CC(=O)Nc1cc(F)c2c(c1)CC(CNCCC1CN(c3cnc4c(n3)NC(=O)CO4)C(=O)O1)C2)C1CC1 (stereo not shown) [Example 13]
6,≤ 0.06,"O=C1COc2ncc(N3CC4(CCN(CC5Cc6cc(NC(=O)[C@@H]7C[C@H](O)CN7)cc(F)c6C5)CC4)OC3=O)nc2N1 (stereo partly drawn) [Example 57, (2S,4S)—N-[7-Fluoro-2-[[2-oxo-3-(3-oxo-4H-pyrazino[2,3-b][1,4]oxazin-6-yl)-1-oxa-3,8-diazaspiro[4.5]decan-8-yl]methyl]indan-5-yl]-4-hydroxy-pyrrolidine-2-carboxamide]"
7,0.5,"C[C@H](C(=O)Nc1cc(F)c2c(c1)C(F)C(CNCC[C@@H]1CN(c3cnc4c(n3)NC(=O)CO4)C(=O)O1)C2)N(C)C (stereo partly drawn) [Example 67, (2R)—N-[3,7-Difluoro-2-[[2-[(5R)-2-oxo-3-(3-oxo-4H-pyrazino[2,3-b][1,4]oxazin-6-yl)oxazolidin-5-yl]ethylamino]methyl]indan-5-yl]-2-(dimethylamino)propanamide]"
8,0.5,C[C@H](C(=O)Nc1ccc2c(c1F)CC(CNCCC1CN(c3cnc4c(n3)NC(=O)CO4)C(=O)O1)C2)N(C)C (stereo partly shown) [Example 23]
9,0.125,"O=C1COc2ncc(N3CC4(CCN(CC5Cc6cc(NC(=O)[C@H]7C[C@@H](O)CN7)cc(F)c6C5)CC4)OC3=O)nc2N1 (stereo partly drawn) [Example 55, (2R,4R)—N-[7-Fluoro-2-[[2-oxo-3-(3-oxo-4H-pyrazino[2,3-b][1,4]oxazin-6-yl)-1-oxa-3,8-diazaspiro[4.5]decan-8-yl]methyl]indan-5-yl]-4-hydroxy-pyrrolidine-2-carboxamide]"
10,0.125,CC(C(=O)Nc1cc(F)c2c(c1)CC(CNCC[C@@H]1CN(c3cnc4c(n3)NC(=O)CO4)C(=O)O1)C2)N1CCC1 (stereo partly shown) [Example 16]
11,2,CN(C)[C@]1(C(=O)Nc2cc(F)c3c(c2)CC(CNCCC2CN(c4cnc5c(n4)NC(=O)CO5)C(=O)O2)C3)CCOC1 (stereo partly shown) [Example 19]
12,0.5,"Cc1nc(NC(=O)[C@@H](C)N(C)C)cc2c1CC(CN1CCC3(CC1)CN(c1cnc4c(n1)NC(=O)CO4)C(=O)O3)C2 (stereo partly drawn) [Example 29, (2R)-2-(dimethylamino)-N-[1-methyl-6-[[2-oxo-3-(3-oxo-4H-pyrazino[2,3-b][1,4]oxazin-6-yl)-1-oxa-3,8-diazaspiro[4.5]decan-8-yl]methyl]-6,7-dihydro-5H-cyclopenta[c]pyridin-3-yl]propanamide]"
13,0.25,"CN(CCC1CN(c2cnc3c(n2)NC(=O)CO3)C(=O)O1)CC1Cc2cc(NC(=O)[C@@H]3C[C@@H](O)CN3)cc(F)c2C1 (stereo partly drawn) [Example 63, (2S,4R)—N-[7-Fluoro-2-[[methyl-[2-[2-oxo-3-(3-oxo-4H-pyrazino[2,3-b][1,4]oxazin-6-yl)oxazolidin-5-yl]ethyl]amino]methyl]indan-5-yl]-4-hydroxy-pyrrolidine-2-carboxamide]"
14,1,"CO[C@@H]1C[C@@H](C(=O)Nc2cc(F)c3c(c2)CC(CNCCC2CN(c4cnc5c(n4)NC(=O)CO5)C(=O)O2)C3)N(C)C1 (stereo partly drawn) [Example 17, (2S,4R)-N-[7-fluoro-2-[[2-[2-oxo-3-(3-oxo-4H-pyrazino[2,3-b][1,4]oxazin-6-yl)oxazolidin-5-yl]ethylamino]methyl]indan-5-yl]-4-methoxy-1-methyl-pyrrolidine-2-carboxamide]"
15,0.25,"CC(C)(N)C(=O)Nc1cc(F)c2c(c1)CC(CNCCC1CN(c3cnc4c(n3)NC(=O)CO4)C(=O)O1)C2 (stereo not shown) [Example 43, 2-amino-N-[7-fluoro-2-[[2-[2-oxo-3-(3-oxo-4H-pyrazino[2,3-b][1,4]oxazin-6-yl)oxazolidin-5-yl]ethylamino]methyl]indan-5-yl]-2-methyl-propanamide]"
16,≤ 0.06,"O=C1COc2ncc(N3CC4(CCN(CC5Cc6cc(NC(=O)[C@H]7C[C@H](O)CN7)cc(F)c6C5)CC4)OC3=O)nc2N1 (stereo partly drawn) [Example 56, (2R,4S)—N-[7-Fluoro-2-[[2-oxo-3-(3-oxo-4H-pyrazino[2,3-b][1,4]oxazin-6-yl)-1-oxa-3,8-diazaspiro[4.5]decan-8-yl]methyl]indan-5-yl]-4-hydroxy-pyrrolidine-2-carboxamide]"
17,0.25,"O=C1COc2ncc(N3CC4(CCN(CC5Cc6c(F)cc(NC(=O)[C@@H]7C[C@@H](O)CN7)c(F)c6C5)CC4)OC3=O)nc2N1 (stereo partly drawn) [Example 52, (2S,4R)—N-[4,7-Difluoro-2-[[2-oxo-3-(3-oxo-4H-pyrazino[2,3-b][1,4]oxazin-6-yl)-1-oxa-3,8-diazaspiro[4.5]decan-8-yl]methyl]indan-5-yl]-4-hydroxy-pyrrolidine-2-carboxamide]"
18,0.25,"CC(C)(O)C(=O)Nc1cc(F)c2c(c1)CC(CNCCC1CN(c3cnc4c(n3)NC(=O)CO4)C(=O)O1)C2 (stereo not shown) [Example 18, N-[7-fluoro-2-[[2-[2-oxo-3-(3-oxo-4H-pyrazino[2,3-b][1,4]oxazin-6-yl)oxazolidin-5-yl]ethylamino]methyl]indan-5-yl]-2-hydroxy-2-methyl-propanamide]"
19,0.25,"N[C@]1(C(=O)Nc2cc(F)c3c(c2)CC(CNCCC2CN(c4cnc5c(n4)NC(=O)CO5)C(=O)O2)C3)CCOC1.O=C(O)C(F)(F)F (stereo partly drawn) [Example 40, (3R)-3-amino-N-[7-fluoro-2-[[2-[2-oxo-3-(3-oxo-4H-pyrazino[2,3-b][1,4]oxazin-6-yl)oxazolidin-5-yl]ethylamino]methyl]indan-5-yl]tetrahydrofuran-3-carboxamide; 2,2,2-trifluoroacetic acid]"
20,0.5,"COC[C@@H](N)C(=O)Nc1cc(F)c2c(c1)CC(CNCCC1CN(c3cnc4c(n3)NC(=O)CO4)C(=O)O1)C2 (stereo partly drawn) [Example 39, (2R)-2-amino-N-[7-fluoro-2-[[2-[2-oxo-3-(3-oxo-4H-pyrazino[2,3-b][1,4]oxazin-6-yl)oxazolidin-5-yl]ethylamino]methyl]indan-5-yl]-3-methoxy-propanamide]"
21,1,"O=C(CN1CCOCC1)Nc1cc(F)c2c(c1)CC(CNCCC1CN(c3cnc4c(n3)NC(=O)CO4)C(=O)O1)C2 (stereo not shown) [Example 5, N-[7-fluoro-2-[[2-[2-oxo-3-(3-oxo-4H-pyrazino[2,3-b][1,4]oxazin-6-yl)oxazolidin-5-yl]ethylamino]methyl]indan-5-yl]-2-morpholino-acetamide]"
22,0.5,"O=C1COc2ncc(N3CC(CCNCC4Cc5cc(NC(=O)[C@@H]6C[C@H](O)CN6)cc(F)c5C4)OC3=O)nc2N1 (stereo partly drawn) [Example 46, (2S,4S)-N-[7-fluoro-2-[[2-[2-oxo-3-(3-oxo-4H-pyrazino[2,3-b][1,4]oxazin-6-yl)oxazolidin-5-yl]ethylamino]methyl]indan-5-yl]-4-hydroxy-pyrrolidine-2-carboxamide]"
23,0.125,"O=C1COc2ncc(N3CC4(CCN(CC5Cc6cc(NC(=O)[C@@H]7C[C@@H](O)CN7)cc(F)c6C5)CC4)OC3=O)nc2N1 (stereo partly drawn) [Example 42, (2S,4R)—N-[7-fluoro-2-[[2-oxo-3-(3-oxo-4H-pyrazino[2,3-b][1,4]oxazin-6-yl)-1-oxa-3,8-diazaspiro[4.5]decan-8-yl]methyl]indan-5-yl]-4-hydroxy-pyrrolidine-2-carboxamide]"
24,0.5,CN(CC(=O)Nc1cc(F)c2c(c1)CC(CNCCC1CN(c3cnc4c(n3)NC(=O)CO4)C(=O)O1)C2)C1COC1 (stereo not shown) [Example 11]

# Same assay, conditions: strain Escherichia coli ATCC 25922; broth microdilution per CLSI M07-A10; 18-24 hours at 35±2° C.; lowest concentration for complete growth inhibition
row,Escherichia coli growth inhibition MIC [µg/mL],SMILES
1,0.125,"C[C@H](C(=O)Nc1cc(F)c2c(c1)CC(CNCC[C@H]1CN(c3cnc4c(n3)NC(=O)CO4)C(=O)O1)C2)N(C)C (single isomer, unassigned) [Example 69]"
